# From patent US20190358264A1, “METHODS OF TREATING DISEASES ASSOCIATED WITH ILC2 CELLS” (Limm Therapeutics, SA, priority 2016, published 2019)
# What was measured:
# NFAT = NFAT translocation in ILC2 by confocal microscopy; type: cell-based, mouse; conditions: NmU23 100 ng/mL, 90 minutes, Lamina Propria ILC2, anti-NFAT2 staining (FIG. 11c)
# Method: FIGS. 11a-11b: ILC2 were FBS deprived for 2 hours prior to treatment with either (FIG. 11a) 11R-VIVIT (inhibits NFAT activation) (10 μM) or (FIG. 11b) cyclosporin A (CsA, […]). Expression of type 2 cytokines were measured by quantitative RT-PCR (FIGS. 11a,11b). n=3-6. FIG. 11c, Deprivated ILC2 from Lamina Propria were stimulated 90′ with NmU23 (100 ng/mL), fixed, permeabilized and stained with anti-NFAT2 monoclonal antibody (abcam). Cells were analyzed by confocal microscopy. *P<0.05; **P<0.01; ***P<0.001; ****P<0.0001; ns not significant.
# ILC2s = experiment: In vivo administration of NmU23, ILC2- and T cell-derived type 2 cytokines; parameters: species or system mouse; conditions: single dose NmU23 20 μg intraperitoneal, analyzed after 8 hours, vs PBS
# Method: For in vitro experiments, purified lung and small intestine lamina propria ILC2s were FBS starved for 2 hours prior to stimulation and cultured in complete RPMI (supplemented with 10% foetal bovine serum (FBS), 1% hepes, sodium pyruvate, glutamine, streptomycin and penicillin) at 37° C. For mRNA analysis, ILC2s were stimulated overnight with recombinant mouse Neuromedin U 23 peptide (NmU23, 100 ng/mL; Phoenix pharmaceuticals). Both NmU23-stimulated and control ILC2s were cultured in the presence of IL-2 and IL-7 (10 ng/mL; Peprotech). ILC2s were lysed using RLT buffer (Qiagen). For cytokine protein analysis, ILC2s were incubated exclusively with brefeldin A (eBioscience) for 12 hours prior to intracellular staining. For in vivo experiments, B6 mice were injected intraperitoneal with NmU23 peptide (2 g/day) during Nippostrongylus brasiliensis infection or with a single dose of NmU23 (20 μg) and analyzed after 8 hours. Control mice were treated with PBS alone.
# Intracellular staining was performed using IC fixation/permeabilization kit (eBioscience). Flow cytometry analysis and cell sorting were performed using BD LSRFORTESSA and BD FACSAria flow cytometers (BD Biosciences). Data analysis was done using FlowJo software (Tristar). Sorted populations were >95% pure. […]
substance,measurement,setting,value
"recombinant mouse Neuromedin U 23 peptide (FKAEYQSPSVGQSKGYFLFRPRN; listed as Mus musculus) [NmU23, NMUR1 agonist neuropeptide, Phoenix pharmaceuticals]",translocation of NFAT in ILC2,NFAT,efficient translocation of NFAT from the cytoplasm to the nucleus
same,T helper cell-derived type 2 cytokines after in vivo administration,ILC2s,unperturbed
same,type 2 cytokine production from ILC2s after in vivo administration,ILC2s,immediate and selective type 2 cytokine production
